The record followed here is patent US20250027956A1, “Improved Gamma-Secretase Inhibitor Screening Assays” (VIB VZW, priority 2021, published 2025).

Assay type in all cases: cell-based, mouse
The test system of assay [1] is WT MEFs. As to the kind of experiment: Immunoblot of APP-CTFs in drug-treated WT MEFs. Particulars: 1 μM for 1-4 days, vs DMSO. As for the experimental part: (§1) Cells were treated with the following drugs, usually for 4 days, unless otherwise stated: DAPT (2634/10, Tocris) 1 μM final; Inhibitor X (565771-250 μg, Calbiochem/Merck) 1 μM final; β-Secretase Inhibitor IV (565788, Calbiochem/Merck) 2 μM final, (2-Hydroxypropyl)-γ-cyclodextrin (H125-5G-I, Sigma Aldrich) 1 mM final; Adam 10 inhibitor G1254023X (SML0789, Sigma Aldrich) 3 μM final. For OSW-1 (30310-1, Sanbio/Cayman Chemical), cells were treated overnight with 10 nM. Diluent treatment alone (in most cases DMSO, water for the cyclodextrin) was used as vehicle control.
Whole cell extracts were prepared starting from lysed cultured cells (80% confluency). Protein concentration was determined using the Bio-Rad DC protein assay (Bio-Rad). These extracts were run on 4-12% Bis-Tris Bolt or NuPAGE precast gels in MES/MOPS running buffer (Invitrogen), followed by transfer on nitrocellulose membranes (Life Technologies). Of note, for APP-CTFs characterization, samples were run on 16% tricine gels (Life Technologies) in the appropriate running buffer (LC1675, Life Technologies). Membranes were blocked with 5% non-fat milk (1 h, RT), incubated with primary antibodies (overnight, 4° C.), rinsed and incubated with HRP-conjugated secondary antibodies (1 h, RT). […]
In general terms: In western blotting, separated proteins are transferred to a membrane and probed.

In assay [2] the test system is WT MEFs. Briefly: Lysosomal Ca2+ content, Fura-2AM loaded cells challenged with GPN, WT cells. Conditions: normalized to DMSO. The procedure:
as §1
Cytosolic response: Ca2+ responses were measured as previously described in Coen et al 2012. Briefly, cells (0.005 to 0.01×106) were seeded two to three days prior to the experiment on glass coverslips (631-0153, VWR). On the day of recording, cells were rinsed three times in Ringer solution (155 mM NaCl, 5 mM KCl, 2 mM MgCl2, 2 mM CaCl2, 10 mM Glucose, 10 mM HEPES, 2 mM NaH2PO4·2H20; pH 7.3), and loaded 1 μM Fura2-AM (F1221, ThermoFisher Scientific) for 30 min (RT). Cells were rinsed three times and left to equilibrate for at least 15-20 min (RT). All acquisitions were carried out in Ringer Ca2+ free solution (same as above, albeit the 2 mM CaCl2 were replaced by 2 mM EGTA). During experiments, cells were challenged with different drugs, such as Thapsigargin (T7459, ThermoFisher Scientific, 1 μM final), GPN (ab145914, abcam, 100 μM final for MEFs, 500 μM for neurons), MLSA1 (Cat. No. 4746, Tocris, 20 μM final) or lonomycin (10634, Sigma Aldrich, 1 μM final). Images were acquired every 5 sec for 8-10 min, using an Olympus IX81 using an UAPO/340 40× oil objective (1.35 NA), operated by CellR Software (Olympus). Recordings were done using 340 and 380 nm excitation, and 530 nm emission filters. Image processing was performed using Image J Software (Schindelin et al 2012; Schneider et al 2012). Briefly, cells were segmented manually and fluorescence intensities were measured over time. Fura-2 signals were corrected to obtain ΔF/F0 (F0 being the initial signal recorded). For each cell, the area under the curve, corresponding to the aforementioned stimulation, was measured using GraphPad Prism.

In a further assay the test system is APPKO cells. Briefly: Lysosomal Ca2+ content, Fura-2AM loaded cells challenged with GPN, APPKO cells. Conditions: 1 μM, 4 days, normalized to DMSO. The source says: Diluent treatment alone (in most cases DMSO, water for the cyclodextrin) was used as vehicle control.
Briefly, the web-based CRISPR design tool was used to select the sequence to be targeted in mouse PSEN1 and PSEN2 (i.e. 5′-[…]-3′ and 5′-[…]-3′, respectively). Oligo pairs encoding guide sequences (obtained from Integrated DNA Technologies, IDT) were annealed and ligated into the pX330 plasmid (Addgene) according to the Zhang's laboratory protocol (https://www.addgene.org/crispr/zhang/). MEF cells were then transfected with the pX330-PSEN1 and PX330-PSEN2, using Fugene HD (Promega), in accordance with the manufacturer protocol. Selection of PSENdKO clones was achieved through serial dilution and confirmed by WB analysis. Further depletion of APP in different PSENdKO clones was achieved through electroporation of RNP complexes. […]
Cells were rinsed three times and left to equilibrate for at least 15-20 min (RT). […] Briefly, cells were segmented manually and fluorescence intensities were measured over time. Fura-2 signals were corrected to obtain ΔF/F0 (F0 being the initial signal recorded). For each cell, the area under the curve, corresponding to the aforementioned stimulation, was measured using GraphPad Prism.

For assay [3], the system named is WT MEFs. As to the kind of experiment: Confocal immunofluorescence (compartment size, Mander's colocalization, filipin) in WT MEFs. As for the experimental part: as §1
Immunofluorescence: Cells were fixed (4% paraformaldehyde (PFA)/4% sucrose in PBS free of Ca2+ and Mg2+ (PBS−/−) 20 min, RT), permeabilized (0.1% triton X-100 in PBS−/−; 10 min, RT), and blocked (2% BSA, 2% FBS, 1% gelatin, and depending of the experiment 2% of goat or donkey serum (Bioké or Sigma), 1 h RT). Primary antibodies diluted in the same blocking buffer were incubated overnight at 4° C. Following PBS washing steps, (goat- or donkey-) secondary antibodies conjugated with Alexa fluor dyes (Alexa 488, 568, or 647, all ThermoFisher Scientific) diluted in the blocking buffer were incubated for 1 h, RT. Coverslips were then mounted with Mowiol (Sigma). When cholesterol labelling was performed, fixed cells were treated with 200 μg·ml−1 filipin (F4767, Sigma) for 2 h at RT, prior to permeabilization.
Acquisition: Z stack images (spacing 2 μm), or a median plan were acquired on a Nikon 1AR connected to an inverse Nikon Ti-2000 equipped with an oil-immersion plan APO 60× objective lenses with 1.40 NA. Data were collected using Nikon Imaging Software.
Image analysis: All image analysis was done using Image J software (Schindelin et al 2012; Schneider et al 2012). To measure the area of the organelle of interest (early endosomes-EEA1; lysosomes-Lamp1; retromer-VPS35 . . . ), segmentation was realized using automatic thresholding. The following masks were used: Mean (EEA1), Ostu (Lamp1), Intermodes (VPS35). Overlap of signal of interests were quantified with Manders colocalisation index (Plugin Jacob, (Bolte and Cordelieres 2006)). When indicated, co-localization data was normalized to the reference group for multiple comparisons.

In the case of `C[C@H](NC(=O)Cc1cc(F)cc(F)c1)C(=O)N[C@H](C(=O)OC(C)(C)C)c1ccccc1` [DAPT], in the assay on WT MEFs [1], the “APP-CTFs level (immunoblot)” value is “rapidly accumulated APP-CTFs”. For the same compound, the “lysosomal Ca2+ content” value in the assay with WT MEFs [2] (1 μM for 1-4 days, 100 μM GPN) is listed as “significantly reduced lysosomal Ca2+ content”. For the same compound, the “lysosomal Ca2+ content” value with WT MEFs [2] (WT cells, 1 μM, 4 days) is “reduced”. The “Lysosomal Ca2+ content (GPN-elicited Ca2+ response)” value with APPKO cells is given as “did not affect the GPN-elicited Ca2+ response”. In addition, the “early endosomes (EEA1) size” value with WT MEFs [3] (1 μM for 1-4 days) is given as “significantly enlarged only after 4 days of treatment”. In the assay on WT MEFs [3] (1 μM for 1-4 days, vs DMSO), the “APP-CTF accumulation in LAMP1-positive LE/Lys (Mander's colocalization APP-Lamp1)” value is “increasing APP-CTF accumulation” and the “cholesterol accumulation in LE/Lys (Filipin-Lamp1 colocalization)” value was “only significantly from day 2”. The “colocalization of VPS35 and EEA1 with Lamp1” value in the assay with WT MEFs [3] (1 μM for 1-4 days, from day 3 onward) is “increased colocalization of VPS35 and EEA1 with Lamp1”. In the assay on WT MEFs [3] (1 μM, following 3 days of treatment), the “VPS35-positive organelles (size)” value was “found to be increased”.
